{"source": "patent US10610125B2", "about": "“Methods and compositions for cell-proliferation-related disorders” (Agios Pharmaceuticals, Inc., priority 2009, dated 2020)", "key": {"[1]": {"biological_target": "T1, IDH1 R132C (Homo sapiens (Human), UniProt O75874, R132C)", "T1 sequence (O75874 whole entry R132C)": "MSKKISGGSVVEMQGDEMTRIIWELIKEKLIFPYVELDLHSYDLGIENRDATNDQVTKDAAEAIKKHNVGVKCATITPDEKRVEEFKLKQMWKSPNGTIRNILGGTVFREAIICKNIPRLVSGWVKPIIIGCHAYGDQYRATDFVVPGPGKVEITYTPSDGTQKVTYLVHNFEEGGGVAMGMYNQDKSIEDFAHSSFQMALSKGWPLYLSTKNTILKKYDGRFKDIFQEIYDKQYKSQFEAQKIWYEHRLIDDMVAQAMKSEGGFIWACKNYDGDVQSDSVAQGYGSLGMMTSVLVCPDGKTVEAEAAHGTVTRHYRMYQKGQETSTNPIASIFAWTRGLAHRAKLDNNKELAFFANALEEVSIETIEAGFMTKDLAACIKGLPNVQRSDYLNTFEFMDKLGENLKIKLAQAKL", "test": "IDH1/2 activity assay, forward reaction (isocitrate, NADP+), stopped-flow, IDH1 R132C", "type": "biochemical", "protocol": "(§1) Enzymatic binding constants were determined using curve fitting algorithms to standard kinetic models with the Sigmaplot software package (Systat Software, San Jose, Calif.). For determination of kcat, enzyme was incubated with 5×Km of substrate and cofactor; consumption of NADPH or NADP was determined by a change in the OD340 over time. In both cases an extinction coefficient of 6200 M^−1 cm^−1 was used for NADPH."}, "[2]": {"biological_target": "T1, IDH1 R132C", "test": "IDH1/2 activity assay, reverse reaction (α-KG, NADPH), stopped-flow, IDH1 R132C", "type": "biochemical", "details": "Reductive (→ NADP+)", "protocol": "as §1"}, "[3]": {"biological_target": "T2, IDH1 R132S (Homo sapiens (Human), UniProt O75874, R132S)", "T2 sequence (O75874 whole entry R132S)": "as the sequence (O75874 whole entry R132C) above, with C132S counted along it", "test": "Oxidative decarboxylation of isocitrate to α-KG by IDH1 R132S (340 nm)", "type": "biochemical", "protocol": "(§2) In these reactions, the substrate was varied while the cofactor was held constant at 500 uM. All reactions were performed in 150 mM NaCl, 20 mM Tris-Cl, pH 7.5, 10% glycerol, and 0.03% (w/v) BSA). Reaction progress was followed by spectroscopy at 340 nM monitoring the change in oxidation state of the cofactor. Sufficient enzyme was added to give a linear change in absorbance for 10 minutes.\n(§3) A well-known regulatory mechanism for control of metabolic enzymes is feedback inhibition, in which the product of the reaction acts as a negative regulator for the generating enzyme."}, "[4]": {"biological_target": "T3, IDH1 R132H (Homo sapiens (Human), UniProt O75874, R132H)", "T3 sequence (O75874 whole entry R132H)": "as the sequence (O75874 whole entry R132C) above, with C132H counted along it", "test": "Oxidative decarboxylation of isocitrate to α-KG by IDH1 R132H (340 nm)", "type": "biochemical", "protocol": "as §2, §3"}, "[5]": {"biological_target": "T4, IDH1 wild-type (Homo sapiens (Human), UniProt O75874)", "T4 sequence (O75874 whole entry)": "as the sequence (O75874 whole entry R132C) above, with C132R counted along it", "test": "Oxidative decarboxylation of isocitrate to α-KG by IDH1 wild-type (340 nm)", "type": "biochemical", "protocol": "as §2, §3"}, "[6]": {"biological_target": "T4, IDH1 wild-type", "test": "IDH1/2 activity assay, forward reaction (isocitrate, NADP+), stopped-flow, IDH1 wild-type", "type": "biochemical", "details": "Oxidative (→ NADPH), WT", "protocol": "as §1"}, "[7]": {"tested_on": "glioblastoma multiforme", "details": "cited from earlier work"}, "[8]": {"tested_on": "recurrent glioma", "details": "recurrent glioma patients; cited from earlier work"}, "[9]": {"tested_on": "glioblastoma multiforme", "details": "cited from earlier work", "remark": "listed apart in the source"}, "[10]": {"biological_target": "T2, IDH1 R132S", "test": "Reduction of α-KG with NADPH by IDH1 R132S", "type": "biochemical", "protocol": "as §2, with “reactions,” for “reactions, the”, “50” for “150”, “potassium phosphate buffer,” for “NaCl, 20 mM Tris-Cl,”, “6.5,” for “7.5,”, “glycerol,” for “glycerol, and”, “BSA, 5 mM MgCl2, and 40 mM sodium hydrocarbonate.” for “BSA).”"}, "[11]": {"biological_target": "T4, IDH1 wild-type", "test": "Reduction of α-KG with NADPH by IDH1 wild-type", "type": "biochemical", "details": "40 ug/ml enzyme", "protocol": "as §2, with “reactions,” for “reactions, the”, “50” for “150”, “potassium phosphate buffer,” for “NaCl, 20 mM Tris-Cl,”, “6.5,” for “7.5,”, “glycerol,” for “glycerol, and”, “BSA, 5 mM MgCl2, and 40 mM sodium hydrocarbonate.” for “BSA).”"}, "[12]": {"biological_target": "T3, IDH1 R132H", "test": "Reduction of α-KG with NADPH by IDH1 R132H", "type": "biochemical", "protocol": "as §2, with “reactions,” for “reactions, the”, “50” for “150”, “potassium phosphate buffer,” for “NaCl, 20 mM Tris-Cl,”, “6.5,” for “7.5,”, “glycerol,” for “glycerol, and”, “BSA, 5 mM MgCl2, and 40 mM sodium hydrocarbonate.” for “BSA).”"}, "[13]": {"biological_target": "T4, IDH1 wild-type", "test": "IDH1/2 activity assay, reverse reaction (α-KG, NADPH), stopped-flow, IDH1 wild-type", "type": "biochemical", "details": "Reductive (→ NADP+); WT; est.", "protocol": "as §1"}, "[14]": {"details": "for isocitrate, cofactor 500 uM"}, "[15]": {"details": "with radiation, vs radiation alone"}, "[16]": {"details": "without MGMT promoter methylation"}, "[17]": {"details": "for α-KG, cofactor 500 uM, pH 6.5"}, "[18]": {"details": "α-KG varied, cofactor 500 uM, pH 6.5"}, "[19]": {"details": "α-KG product inhibition, competitive with isocitrate, read-out: Ki"}}, "note": "Where two headings read alike, the source gives them in different places.", "data": [{"compound": "NC(=O)c1ccc[n+]([C@@H]2O[C@H](COP(=O)([O-])OP(=O)(O)OC[C@H]3O[C@@H](n4cnc5c(N)ncnc54)[C@H](OP(=O)(O)O)[C@@H]3O)[C@@H](O)[C@H]2O)c1", "note": "[NADP+]", "values": [{"measurement": "Km", "setting": "[1]; Oxidative (→ NADPH), read-out: KM,NADP+", "result": 0.021, "unit": "mM"}]}, {"compound": "NC(=O)C1=CN([C@@H]2O[C@H](COP(=O)(O)OP(=O)(O)OC[C@H]3O[C@@H](n4cnc5c(N)ncnc54)[C@H](OP(=O)(O)O)[C@@H]3O)[C@@H](O)[C@H]2O)C=CC1", "note": "[NADPH]", "values": [{"measurement": "Km", "setting": "[2]; read-out: KM,NADPH", "result": 0.3, "unit": "µM"}]}, {"compound": "O=C(O)C(=O)C(C(=O)O)C(O)C(=O)O", "note": "(centres unmarked) [Oxalomalate, oxalomalate]", "values": [{"measurement": "Ki", "setting": "[3]; IDH1R132S 30 ug/ml, NADP 0.5 mM, DL-isocitrate 5-650 uM, read-out: Oxalomalate Ki", "result": 510, "unit": "µM"}, {"measurement": "increase in susceptibility to inhibition by oxalomalate", "setting": "[3]; R132S vs wt", "result": "two-fold"}, {"measurement": "Ki", "setting": "[4]; IDH1R132H 60 ug/ml, NADP 0.5 mM, DL-isocitrate 5-650 uM, read-out: Oxalomalate Ki", "result": 951, "unit": "µM"}, {"measurement": "susceptibility to inhibition by oxalomalate", "setting": "[4]; R132H vs wt", "result": "essentially unaffected"}, {"measurement": "Ki", "setting": "[5]; IDH1 wt 1.5 ug/ml, NADP 0.5 mM, DL-isocitrate 5-650 uM, read-out: Oxalomalate Ki", "result": 955, "unit": "µM"}]}, {"compound": "O=C(O)CC(C(=O)O)C(O)C(=O)O", "note": "(centres unmarked) [isocitrate]", "values": [{"measurement": "Km", "setting": "[1]; read-out: KM,isocitrate, Oxidative (→ NADPH)", "result": 87, "unit": "mM"}, {"measurement": "Km", "setting": "[6]; read-out: KM,isocitrate", "result": 57, "unit": "µM"}, {"measurement": "Km", "setting": "[4]; [14]", "result": 172, "unit": "µM"}, {"measurement": "Km", "setting": "[5]; [14]", "result": 56.8, "unit": "µM"}]}, {"compound": "O=C(O)CCC(O)C(=O)O", "note": "(centres unmarked) [reaction product 2-HG, 2-hydroxyglutarate]", "values": [{"measurement": "effect on oxidative decarboxylation of isocitrate by wild-type ICDH1", "setting": "[5]; added in a titration series", "result": "inhibit"}]}, {"compound": "Cn1nnc2c(C(N)=O)ncn2c1=O", "note": "[temozolomide, Temozolomide]", "values": [{"measurement": "tolerability", "setting": "[7]; in vivo", "result": "well tolerated"}, {"measurement": "likelihood of being alive in 2 years", "setting": "[7]; [15]", "result": 26, "unit": "%"}, {"measurement": "median progression-free survival", "setting": "[7]; [15]", "result": 6.9, "unit": "mo"}, {"measurement": "overall survival", "setting": "[7]; [15]", "result": 14.6, "unit": "mo"}, {"measurement": "6-month survival", "setting": "[8]", "result": 21, "unit": "%"}, {"measurement": "2-year survival rate", "setting": "[9]; with MGMT promoter methylation", "result": 46, "unit": "%"}, {"measurement": "median survival", "setting": "[9]; with MGMT promoter methylation", "result": 21.7, "unit": "months"}, {"measurement": "2-year survival rate", "setting": "[9]; [16]", "result": 13.8, "unit": "%"}, {"measurement": "median survival", "setting": "[9]; [16]", "result": 12.7, "unit": "months"}]}, {"compound": "O=C(O)CCC(=O)C(=O)O", "note": "[α-KG, α-Ketoglutarate]", "values": [{"measurement": "Km", "setting": "[10]; [17]", "result": 181, "unit": "µM"}, {"measurement": "Ki", "setting": "[10]; uncompetitive substrate inhibition by α-KG", "result": 24.6, "unit": "mM"}, {"measurement": "Hill Constant", "setting": "[10]; α-KG varied", "result": 0.479}, {"measurement": "Vmax", "setting": "[10]; [18]", "result": 2.7, "unit": "µmol/min/mg"}, {"measurement": "Ki", "setting": "[1]; Oxidative (→ NADPH), read-out: Ki,αKG", "result": 61, "unit": "µM"}, {"measurement": "NADPH consumption in reduction of α-KG", "setting": "[11]", "result": "unable to consume NADPH"}, {"measurement": "Ki", "setting": "[3]; [19]", "result": 45.3, "unit": "µM"}, {"measurement": "increase in sensitivity to feedback inhibition as compared to the wild-type enzyme", "setting": "[3]; α-KG, R132S vs wild-type", "result": 13, "unit": "fold"}, {"measurement": "Ki", "setting": "[6]; read-out: Ki,αKG", "result": 610, "unit": "µM"}, {"measurement": "Ki", "setting": "[4]; [19]", "result": 28.6, "unit": "µM"}, {"measurement": "increase in sensitivity to feedback inhibition as compared to the wild-type enzyme", "setting": "[4]; α-KG, R132H vs wild-type", "result": 20, "unit": "fold"}, {"measurement": "Ki", "setting": "[5]; [19]", "result": 612, "unit": "µM"}, {"measurement": "Km", "setting": "[2]; read-out: KM,αKG", "result": 295, "unit": "µM"}, {"measurement": "Km", "setting": "[12]; [17]", "result": 965, "unit": "µM"}, {"measurement": "Hill Constant", "setting": "[12]; α-KG varied", "result": 1.8}, {"measurement": "Vmax", "setting": "[12]; [18]", "result": 1.3, "unit": "µmol/min/mg"}]}, {"compound": "R132C", "values": [{"measurement": "kcat", "setting": "[1]; Oxidative (→ NADPH)", "result": 710, "unit": "s⁻¹"}, {"measurement": "kcat", "setting": "[2]", "result": 550, "unit": "s⁻¹"}]}, {"compound": "WT", "values": [{"measurement": "kcat", "setting": "[13]", "result": "~7 (est.) s^−1"}, {"measurement": "kcat", "setting": "[6]", "result": 130000, "unit": "s⁻¹"}]}]}
